Test results as given in paper PMC10928712, “High Target Homology Does Not Guarantee Inhibition: Aminothiazoles Emerge as Inhibitors of Plasmodium falciparum” (ACS Infectious Diseases, 2024).
≈ marks a conversion by molar mass, not a printed value. Where two headings read alike, the source gives them in different places.

Experiments:
P. falciparum 3D7 [1] = tested on: P. falciparum 3D7; set-up: method as in earlier work; settings: Novartis HTS 2008; ref (21); cited from earlier work
P. falciparum W2 = tested on: P. falciparum W2; set-up: method as in earlier work; settings: Novartis HTS 2008; ref (21); cited from earlier work
[2] = tested on: Huh7 (human hepatoma cells); settings: cited from earlier work
P. falciparum Dd2 = assay: Method III growth inhibition assay (HRP2-ELISA, 3 days), Dd2; format: cell-based, Plasmodium falciparum; settings: Plasmodium falciparum, DD2, chloroquine-resistant Dd2, method III
P. falciparum 3D7 [3] = assay: Method I growth-inhibition assay (SYBR Green I, 96 h); format: cell-based; settings: Plasmodium falciparum
Source text: Nonlinear regression as implemented in GraphPad Prism 7.00 (log(inhibitor) vs response – variable slope (four parameters)) was used to fit the measured data to interpolate the IC50 value from the curve. No specific model was applied. Data was preprocessed by normalizing according to the following formula: […]
(§1) eq 1: Fluorescence data normalization [drawing 2] where y is the fluorescence signal in each well, yminimum is the background fluorescence, and ymaximum is the highest measured fluorescence signal in the untreated wells. Drug concentrations (in μM) were transformed to the log(10)of the values. Means of each independent experiment were plotted as individual values, and the SD of the mean from the means shown as error bars. […] In case of transgenic cell lines, the built-in comparison Akaike’s information criteria (AICc) method was applied to the Log IC50s of the different cell lines. The test calculates a percentage probability of the simpler model “Log IC50 is the same for datasets” being correct. The test for homoscedasticity was performed to confirm if no weighting of values was appropriate.

P. falciparum 3D7 [4] = assay: Method III growth inhibition assay (HRP2-ELISA, 3 days), 3D7; format: cell-based, Plasmodium falciparum
M. tuberculosis DXPS = target: M. tuberculosis DXPS; set-up: method as in PMID 36320685; settings: Morrison inhibition constant, slow-, tight-binding; read-out: Ki* MtDXPS; cited from earlier work
[5] = Metabolic stability in human liver S9 fraction; format: in vitro ADME; settings: 1 μM compound; for half-life at 1 μM: human, pooled liver S9 fraction
Method: For the evaluation of combined phase I and phase II metabolic stability, the compound (1 μM) was incubated with 1 mg/mL pooled liver S9 fraction (XenoTech), 2 mM NADPH, 1 mM UDPGA, 10 mM MgCl2, 5 mM GSH, and 0.1 mM PAPS at 37 °C for 0, 5, 15, 30, and 60 min. The metabolic stabilities of testosterone (1 μM), verapamil (1 μM), and propranolol (1 μM) were determined in parallel to confirm the enzymatic activity of the S9 fraction. The incubation was stopped by precipitation of S9 enzymes with two volumes of cold acetonitrile containing internal standard (150 nM diphenhydramine). Samples were stored on ice for 10 min, and precipitated protein was removed by centrifugation (15 min, 4 °C, 4000 rpm). The concentration of the remaining test compound at the different time points was analyzed by LC-MS/MS (TSQ Quantum Access MAX, Thermo Fisher, Dreieich, Germany) and used to determine half-life (t1/2).

P. falciparum NF54 = assay: Method II growth-inhibition assay (PicoGreen, 3 days), NF54; format: cell-based; settings: Plasmodium falciparum; chloroquine-sensitive NF54, method II
Source text: (§2) Fidock (Columbia University).

P. falciparum 3D7-TPK+ = assay: Growth inhibition of PfTPK overexpressing parasites (3D7-TPK+); format: cell-based; settings: Plasmodium falciparum, 3D7, read-out: PfTPK IC50
Method: (§3) P. falciparum cultures were treated as described in method I. For target specification toward PfTPK and PfDXPS, compounds were tested in comparison against overexpressing cell lines and the respective MOCK line containing only the transfected vector backbone. Parasite viability/proliferation was determined. Analysis of the IC50 values and interpretation of the curves was performed, as described in Section 4.1.2.44.
as §1

P. falciparum 3D7 [6] = assay: Method II growth-inhibition assay (PicoGreen, 3 days), 3D7; format: cell-based; settings: Plasmodium falciparum, 3D7, method II
Source text: as §2

[7] = tested on: Mycobacterium tuberculosis H37Rv strain; set-up: method as in PMID 36320685; settings: cited from earlier work
[8] = tested on: blood-stage P. falciparum 3D7; settings: Plasmodium falciparum
P. falciparum 3D7-DXPS+ = assay: Growth inhibition of PfDXPS overexpressing parasites (3D7-DXPS+); format: cell-based; settings: Plasmodium falciparum, 3D7, read-out: PfDXPS IC50
Source text: (§4) The open reading frame (ORF) encoding 1-deoxy-D-xylulose-5-phosphate synthase (PfDXPS; PF3D7_1337200) was amplified from genomic DNA isolated from unsynchronized P. falciparum 3D7 cultures using the Platinum PCR SuperMix High Fidelity (Invitrogen). Forward and reverse primers contained restriction sites for KpnI and AvrII in sense and antisense orientation, respectively (oligonucleotides pfDXPS-Kpn1-S: […]; pfDXPSmyc-Avr2-AS: […] ). PCR products and the transfection vector pARL1a-hDHFR PfARG-GFP were digested with KpnI and AvrII, purified (Gel extraction Kit and PCR purification kit; Qiagen), and cloned into the transfection vector yielding the construct for overexpression pARL-DXS-strep. XL 10-Gold E. coli ultracompetent cells (Agilent Technologies) were transformed with the generated construct to amplify the plasmid and colonies checked using restriction analysis and sequencing of the plasmid. Bacterial clones carrying the overexpression construct and the empty pARL1a vector (MOCK plasmid) were amplified in overnight cultures, isolated (Plasmid Maxi Kit; QIAGEN), and subsequently used to transfect P. falciparum 3D7 ring-stage parasites, as already described.[59] Briefly, 120 μg of plasmid DNA was centrifuged and air-dried, and the pellet was resuspended in TE buffer and cytomix reagent and mixed with the P. falciparum culture. Parasites were transfected using electroporation and selected with WR 99210. The generation and characterization of the PfTPK overexpression cell line has been reported before.[60]
as §3, with “determined.” for “determined. Analysis of the IC50 values and interpretation of the curves was performed, as described in Section 4.1.2.44.”

Hep G2 cells = assay: Hep G2 viability assay (counter screen); format: cell-based, human; settings: Homo sapiens, HepG2, 48 h, cytotoxicity, 48 h
Method: HepG2 cells (2 × 10^5 cells per well) were seeded in 24-well, flat-bottomed plates. Culturing of cells, incubations, and OD measurements were performed as described previously with small modifications.[58] 24 h after seeding the cells, the incubation was started by the addition of compounds in a final DMSO concentration of 1%. The metabolic activity of the living cell mass was determined after 48 h. At least three independent measurements were performed for each compound. The IC50 values were determined during logarithmic growth using GraphPad Prism software. All experiments were performed at least in triplicate, and data reported represent the mean ± SD.

[9] = tested on: P. falciparum 3D7 MOCK cell line; assay: Growth inhibition of MOCK cell line (vector backbone only); format: cell-based; settings: Plasmodium falciparum, 95% CI in brackets
Source text: as §4
as §3, with “determined.” for “determined. Analysis of the IC50 values and interpretation of the curves was performed, as described in Section 4.1.2.44.”

[10] = Kinetic solubility determination; format: physicochemical; settings: PBS with 2% DMSO, aqueous buffer, kinetic from dmso stock, PBS buffer and 2% DMSO; read-out: Max. solubility
Method: The desired compounds were sequentially diluted in DMSO in a 96-well plate. 3 μL of each well was transferred into another 96-well plate and mixed with 147 μL of PBS. Plates were shaken for 5 min at 600 rpm at room temperature (r.t.), and the absorbance at 620 nm was measured. Absorbance values were normalized by blank subtraction and plotted using GraphPad Prism 8.4.2 (GraphPad Software, San Diego, California, USA). Solubility (S) was determined based on the First X value of AUC function using a threshold of 0.005.

[11] = 95% CI in brackets, read-out: IC50 B
[12] = 3D7, read-out: MOCK IC50, MOCK compared with 3D7-DXPS+
[13] = 3D7, read-out: MOCK IC50, MOCK compared with 3D7-TPK+, single measurement
[14] = 3D7, method III (HRP2 assay), drc package of R, read-out: IC50 P. falciparum 3D7 (method III)
[15] = Plasmodium falciparum, 3D7, 3D7, method III (HRP2 assay), drc package of R, read-out: IC50 P. falciparum 3D7 (method III)
[16] = Plasmodium falciparum, 3D7, 3D7, method III, nonlinear regression as in Figure 2, 95% CI in brackets, read-out: IC50 C

| SMILES | IC50 (P. falciparum Dd2) [µM] | Ki (M. tuberculosis DXPS) [µM] | half-life at 1 μM [5] [min] | IC50 (P. falciparum NF54) [µM] | IC50 (P. falciparum 3D7-TPK+) [µM] | IC50 (P. falciparum 3D7 [6]; [11]) [µM] | IC50 (P. falciparum 3D7 [6]; read-out: IC50 3D7-II) [µM] | MIC [7] [µM] | IC50 [8] [µM] | IC50 (P. falciparum 3D7-DXPS+) [µM] | IC50 (Hep G2 cells) [µM] | IC50 (P. falciparum 3D7 [3]; 3D7, read-out: IC50 3D7-I) [nM] | IC50 (P. falciparum 3D7 [3]; 3D7, read-out: IC50 A [μM]) [nM] | IC50 [9, 12] [µM] | IC50 [9, 13] [µM] | IC50 (P. falciparum 3D7 [4]; [14]) [nM] | IC50 (P. falciparum 3D7 [4]; [15]) [nM] | IC50 (P. falciparum 3D7 [4]; [16]) [nM] | also measured |
| --- | --- | --- | --- | --- | --- | --- | --- | --- | --- | --- | --- | --- | --- | --- | --- | --- | --- | --- | --- |
| COC(C(=NO)c1ccc(Cl)cc1)c1ccccc1 (centres unmarked) [CHEMBL581471] | – | – | – | – | – | – | – | – | – | – | – | – | – | – | – | – | – | – | EC50 (P. falciparum 3D7 [1]): > 0.912 µM; EC50 (P. falciparum W2): > 1.61 µM; Huh7 inhibition [2]: > 10 µM |
| CCN(CC)CCCC(C)Nc1ccnc2cc(Cl)ccc12 (centres unmarked) [Chloroquine, chloroquine diphosphate, reference compound] | 0.19 ± 0.03 | – | – | – | – | – | – | – | – | – | – | – | – | – | – | – | – | – | IC50 (P. falciparum 3D7 [3]; 3D7, method I, nM, read-out: IC50 3D7-I): 17.8 ± 3.1 nM; IC50 (P. falciparum 3D7 [4]; Plasmodium falciparum, 3D7, 3D7, method III, nM, read-out: IC50 3D7-III): 2.8 ± 0.7 nM |
| OCc1cn(Cc2ccc(Cl)c(Cl)c2)c2ccccc12 [compound 3] | 13 ± 9 | 1.29 ± 0.2 | 10 ± 0.4 | 15 ± 2 | 21.1 | 17.1 | 17 ± 2 | 10 (≈ 3.06 µg/mL) | 8 to 21 | 17.9 | 0.8 ± 0.2 | 25000 ± 3000 | 21400 | 17.9 | 23.8 | 24000 ± 6000 | 23600 ± 6400 | 7900 | – |
| ON=C(Cc1ccc(Cl)cc1)c1ccc(O)cc1O [compound 2] | 89 ± 31 | 0.27 ± 0.02 | 28 | 41 ± 10 | 90.4 | 43.8 | 42 ± 4 | 10 (≈ 2.78 µg/mL) | 44 to 74 | 110 | > 50 | 81000 ± 3000 | 74200 | 110 | 90.4 | 94000 ± 8000 | 93800 ± 8000 | ~46000 | t1/2 [5]: 29 ± 0.7 min; solubility at 5 min [10]: 114 ± 6.7 µM (≈ 31.7 µg/mL) |
